This note sets out measurements from ChEMBL document CHEMBL4476877, “Treatment of COPD, gastro-esophageal reflux disease (GERD), food allergies and other gastrointestinal conditions and disorders ameliorated by proper histamine management using a combination of histidine decarboxylase inhibitors, LRA drugs, anti-H1 and/or anti-H2 drugs” (2012).

Test [1] relates to Homo sapiens. The experiment in a line: Improvement in disease symptoms in GERD patient assessed as reduction in heartburns at 150 mg dosed daily. Format: functional, organism-based.
The test system of test [2] is Homo sapiens. The experiment in a line: Improvement in disease symptoms in GERD patient assessed as reduction in regurgitation at 150 mg dosed daily. Format: functional, organism-based.
Test [3] has as its system Homo sapiens. The test is described as follows: Improvement in disease symptoms in GERD patient assessed as reduction in cough at 150 mg dosed daily. Format: functional, organism-based.
Test [4] deals with Homo sapiens. The experiment in a line: Improvement in disease symptoms in GERD patient assessed as improvement in global disease scores at 150 mg dosed daily. It is filed as functional, organism-based.
In test [5] the test system is Homo sapiens. The test is described as follows: Improvement in disease symptoms in GERD patient assessed as reduction in cough at 200 mg dosed daily co-treated with 150 mg anti-H2 drug Ranitidine dosed daily. It is filed as functional, organism-based.
Test [6] deals with Homo sapiens. The experiment in a line: Prevention of food allergy in pediatric patient with history of anaphylaxis due to nut allergy assessed as reduction in allergic symptoms at 200 mg dosed daily over 8 months co-administered with 10 mg Montelukast dosed daily. It is filed as functional, organism-based.
The test system of test [7] is Homo sapiens. The test is described as follows: Prevention of food allergy in pediatric patient with history of anaphylaxis due to nut allergy assessed as reduction in digestive symptoms at 200 mg dosed daily over 8 months co-administered with 10 mg Montelukast dosed daily. Format: functional, organism-based.
The test system of test [8] is Homo sapiens. The test is described as follows: Prevention of food allergy in patient with history of anaphylaxis due to ingestion of shrimps assessed as reduction in allergy symptoms at 200 mg dosed daily for 6 weeks co-administered with 10 mg Montelukast dosed daily. It is filed as functional, organism-based.
For test [9], the system named is Homo sapiens. The test is described as follows: Improvement in disease symptoms in GERD patient assessed as improvement in global disease scores at 200 mg dosed daily. It is filed as functional, organism-based.
For test [10], the system named is Homo sapiens. The experiment in a line: Improvement in disease symptoms in GERD patient assessed as reduction in regurgitation at 200 mg dosed daily. It is filed as functional, organism-based.
The subject of test [11] is Homo sapiens. The experiment in a line: Improvement in disease symptoms in GERD patient assessed as reduction in heartburns at 200 mg dosed daily. Format: functional, organism-based.
Test [12] has as its system Homo sapiens. The test is described as follows: Improvement in disease symptoms in GERD patient assessed as improvement in global disease scores at 200 mg dosed daily co-treated with 10 mg anti-H1 drug loratadine dosed daily. Format: functional, organism-based.
The subject of test [13] is Homo sapiens. The test is described as follows: Prevention of food allergy in pediatric patient with history of anaphylaxis due to nut allergy assessed as reduction in allergic reactions at 200 mg dosed daily for 6 weeks co-administered with 10 mg Montelukast dosed daily. Format: functional, organism-based.
The subject of test [14] is Homo sapiens. The test is described as follows: Improvement in disease symptoms in GERD patient assessed as improvement in global disease scores at 200 mg dosed daily co-treated 150 mg anti-H2 drug Ranitidine dosed daily. It is filed as functional, organism-based.
The subject of test [15] is Homo sapiens. The test is described as follows: Improvement in disease symptoms in GERD patient assessed as reduction in regurgitation at 200 mg dosed daily co-treated with 10 mg anti-H1 drug loratadine dosed daily. Format: functional, organism-based.
The test system of test [16] is Homo sapiens. The test is described as follows: Prevention of food allergy in pediatric patient with history of anaphylaxis due to nut allergy assessed as reduction in stomach pain at 200 mg dosed daily for 6 months co-administered with 10 mg Montelukast dosed daily. It is filed as functional, organism-based.
Test [17] has as its system Homo sapiens. The experiment in a line: Prevention of food allergy in patient with history of anaphylaxis due to allergens assessed as reduction in allergy symptoms to pea nut ingestion at 200 mg dosed daily for 8 months co-administered with 10 mg Montelukast dosed daily. Format: functional, organism-based.
Test [18] relates to Homo sapiens. The experiment in a line: Improvement in disease symptoms in GERD patient assessed as improvement in global disease scores at 200 mg dosed daily co-treated with 10 mg anti-H1 drug loratadine dosed daily and 150 mg anti-H2 drug Ranitidine dosed daily. Format: functional, organism-based.
The test system of test [19] is Homo sapiens. The experiment in a line: Improvement in disease symptoms in GERD patient assessed as reduction in heartburns at 200 mg dosed daily co-treated with 10 mg anti-H1 drug loratadine dosed daily. Format: functional, organism-based.
Test [20] deals with Homo sapiens. The test is described as follows: Improvement in disease symptoms in GERD patient assessed as reduction in cough at 200 mg dosed daily. Format: functional, organism-based.
In test [21] the test system is Homo sapiens. The experiment in a line: Improvement in disease symptoms in GERD patient assessed as reduction in cough at 200 mg dosed daily co-treated with 10 mg anti-H1 drug loratadine dosed daily and 150 mg anti-H2 drug Ranitidine dosed daily. Format: functional, organism-based.
For test [22], the target named is T1, Histidine decarboxylase (Homo sapiens) (UniProt P19113).
T1 sequence (whole entry): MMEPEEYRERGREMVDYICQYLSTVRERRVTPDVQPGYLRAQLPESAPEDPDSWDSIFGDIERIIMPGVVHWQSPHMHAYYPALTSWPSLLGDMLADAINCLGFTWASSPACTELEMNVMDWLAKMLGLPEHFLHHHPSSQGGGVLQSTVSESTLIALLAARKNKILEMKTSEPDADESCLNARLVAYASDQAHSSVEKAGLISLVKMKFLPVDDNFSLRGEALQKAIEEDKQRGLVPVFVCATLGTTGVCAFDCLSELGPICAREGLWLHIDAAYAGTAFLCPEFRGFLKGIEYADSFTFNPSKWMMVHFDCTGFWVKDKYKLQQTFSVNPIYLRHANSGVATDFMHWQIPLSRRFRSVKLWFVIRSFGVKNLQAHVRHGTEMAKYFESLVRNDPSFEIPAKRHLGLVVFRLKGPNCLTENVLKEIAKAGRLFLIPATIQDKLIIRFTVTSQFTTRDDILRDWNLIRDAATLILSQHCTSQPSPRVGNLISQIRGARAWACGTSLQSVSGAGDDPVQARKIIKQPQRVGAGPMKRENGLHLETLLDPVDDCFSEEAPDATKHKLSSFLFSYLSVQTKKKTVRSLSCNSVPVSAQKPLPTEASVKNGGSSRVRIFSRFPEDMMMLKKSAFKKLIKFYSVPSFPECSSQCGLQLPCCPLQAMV
The test is described as follows: Inhibition of recombinant human HDC (1 to 512 residues) expressed in Escherichia coli BL21 (DE3) pLysS assessed as reduction in [14C]CO2 production from L-[U-14C]histidine at 10 uM relative to untreated control.

For test [23], the system named is Homo sapiens. The test is described as follows: Prevention of food allergy in patient with history of anaphylaxis due to allergens assessed as reduction in allergy symptoms at 200 mg dosed daily for 6 to 8 weeks co-administered with 10 mg Montelukast dosed daily. Format: functional, organism-based.
The test system of test [24] is Homo sapiens. The test is described as follows: Improvement in disease symptoms in GERD patient assessed as reduction in heartburns at 200 mg dosed daily co-treated with 10 mg anti-H1 drug loratadine dosed daily and 150 mg anti-H2 drug Ranitidine dosed daily. It is filed as functional, organism-based.
The test system of test [25] is Homo sapiens. The experiment in a line: Improvement in disease symptoms in GERD patient assessed as reduction in regurgitation at 200 mg dosed daily co-treated with 10 mg anti-H1 drug loratadine dosed daily and 150 mg anti-H2 drug Ranitidine dosed daily. Format: functional, organism-based.
The subject of test [26] is Homo sapiens. The test is described as follows: Prevention of food allergy in pediatric patient with history of anaphylaxis due to nut allergy assessed as reduction in constipation at 200 mg dosed daily for 6 months co-administered with 10 mg Montelukast dosed daily. Format: functional, organism-based.
Test [27] concerns Homo sapiens. The experiment in a line: Prevention of food allergy in pediatric patient with history of anaphylaxis due to nut allergy assessed as reduction in allergic reactions at 200 mg dosed daily for 6 months co-administered with 10 mg Montelukast dosed daily. Format: functional, organism-based.
Test [28] deals with Homo sapiens. The test is described as follows: Improvement in disease symptoms in GERD patient assessed as reduction in regurgitation at 200 mg dosed daily co-treated with 150 mg anti-H2 drug Ranitidine dosed daily. It is filed as functional, organism-based.
The subject of test [29] is Homo sapiens. The test is described as follows: Prevention of food allergy in pediatric patient with history of anaphylaxis due to nut allergy assessed as reduction in diarrhea at 200 mg dosed daily for 6 months co-administered with 10 mg Montelukast dosed daily. Format: functional, organism-based.
Test [30] deals with Homo sapiens. The experiment in a line: Improvement in disease symptoms in GERD patient assessed as reduction in heartburns at 200 mg dosed daily co-treated with 150 mg anti-H2 drug Ranitidine dosed daily. It is filed as functional, organism-based.
The test system of test [31] is Homo sapiens. The test is described as follows: Improvement in disease symptoms in GERD patient assessed as reduction in cough at 200 mg dosed daily co-treated with 10 mg anti-H1 drug loratadine dosed daily. It is filed as functional, organism-based.

Where “and” joins values, the source holds several entries; their conditions need not be identical. Identical values can stand only once. Calls of active or inactive are those of the source. The calls are words filed in the database; no cut-off is given here.

Regarding `CNC(=C[N+](=O)[O-])NCCSCc1ccc(CN(C)C)o1`, the result in the test with Homo sapiens [1], with Homo sapiens [2], with Homo sapiens [3] and in the test on Homo sapiens [4] was inactive.

The term inhibition denotes how much of the control response was suppressed. For the molecule `CCOc1c(N)c2c(c(OCC)c1OCC)C(C1c3c(cc4c(c3OC)OCO4)CCN1C)OC2=O` (stereo unspecified), the result in the test on Homo sapiens [5], in the test with Homo sapiens [6], in the test on Homo sapiens [7], in the test with Homo sapiens [8], in the test with Homo sapiens [12] and with Homo sapiens [13] was Active. In addition, the result with Homo sapiens [14], with Homo sapiens [15], in the test on Homo sapiens [16], in the test on Homo sapiens [17], in the test on Homo sapiens [18] and in the test with Homo sapiens [19] was Active. The result in the test with Homo sapiens [21], with Homo sapiens [23], in the test on Homo sapiens [24], with Homo sapiens [25], with Homo sapiens [26] and with Homo sapiens [27] was Active. Besides, the result in the test with Homo sapiens [28], with Homo sapiens [29], with Homo sapiens [30] and with Homo sapiens [31] was Active. The result with Homo sapiens [9], in the test on Homo sapiens [10], in the test on Homo sapiens [11] and in the test on Homo sapiens [20] was inactive. In addition, the inhibition in [22] was 36.5% and 27.9%.
